Test results as given in ChEMBL document CHEMBL1134855, “Synthesis and hypoglycemic evaluation of substituted pyrazole-4-carboxylic acids” (2002).

What was measured:
Assay type in all cases: functional
[1] = system: Rattus norvegicus; assay: Evolution of glycemia 2 hr after first administration at the dose of 200 mg/kg in rat
[2] = system: Rattus norvegicus; assay: Evolution of glycemia 2 hr after the last administration for 4 days chronic treatment at the dose of 200 mg/kg in rat
[3] = system: Rattus norvegicus; assay: Evolution of glycemia 2 hr after the last administration for 4 days chronic treatment at the dose of 20 mg/kg in rat
[4] = system: Rattus norvegicus; assay: Evolution of glycemia 2 hr after first administration at the dose of 20 mg/kg in rat

O=C(O)c1cn(Cc2nn[nH]n2)nc1OCc1ccccc1
Glyceamia evolution [1]: -2% | Glyceamia evolution [2]: -7% | Glyceamia evolution [3]: -7% | Glyceamia evolution [4]: 0%

COc1nn(C)cc1C(=O)O
Glyceamia evolution [1]: -5% | Glyceamia evolution [2]: -10% | Glyceamia evolution [3]: -10% | Glyceamia evolution [4]: -7%

CN(C)C(=N)NC(=N)N [METFORMIN]
Glyceamia evolution [1]: -24% | Glyceamia evolution [2]: -24%

O=C(O)c1c[nH]nc1OCc1ccccc1
Glyceamia evolution [1]: -1% | Glyceamia evolution [2]: -15% | Glyceamia evolution [3]: -24% | Glyceamia evolution [4]: 1%

CCOC(=O)CCCn1cc(C(=O)O)c(OCc2ccccc2)n1
Glyceamia evolution [1]: -1% | Glyceamia evolution [2]: -6% | Glyceamia evolution [3]: -3% | Glyceamia evolution [4]: -1%

N#Cc1ccccc1-c1ccc(COc2n[nH]cc2C(=O)O)cc1
Glyceamia evolution [1]: 0% | Glyceamia evolution [2]: -5% | Glyceamia evolution [3]: -11% | Glyceamia evolution [4]: -7%

N#Cc1ccccc1-c1ccc(Cn2cc(C(=O)O)c(OCc3ccccc3)n2)cc1
Glyceamia evolution [1]: -4% | Glyceamia evolution [2]: -3% | Glyceamia evolution [3]: -10% | Glyceamia evolution [4]: -5%

COc1nn(Cc2ccc(-c3ccccc3C#N)cc2)cc1C(=O)O
Glyceamia evolution [1]: 1% | Glyceamia evolution [2]: -3% | Glyceamia evolution [3]: -10% | Glyceamia evolution [4]: -5%

O=C(O)c1cn(Cc2ccccc2)nc1OCc1ccccc1
Glyceamia evolution [1]: -14% | Glyceamia evolution [2]: -9% | Glyceamia evolution [3]: -5% | Glyceamia evolution [4]: -6%

O=C(CCn1cc(C(=O)O)c(OCc2ccccc2)n1)Nc1ccc(Cl)cc1
Glyceamia evolution [1]: -19% | Glyceamia evolution [2]: -19% | Glyceamia evolution [3]: -10% | Glyceamia evolution [4]: -16%

COC(=O)CCn1cc(C(=O)O)c(OCc2ccccc2)n1
Glyceamia evolution [1]: -13% | Glyceamia evolution [2]: -3% | Glyceamia evolution [3]: -7% | Glyceamia evolution [4]: -3%

C=CCn1cc(C(=O)O)c(OC)n1
Glyceamia evolution [1]: 5% | Glyceamia evolution [2]: 6% | Glyceamia evolution [3]: 1% | Glyceamia evolution [4]: 3%

COc1nn(CC=C(C)C)cc1C(=O)O
Glyceamia evolution [1]: -8% | Glyceamia evolution [2]: -11% | Glyceamia evolution [3]: -3% | Glyceamia evolution [4]: 3%

O=C(O)c1c[nH]nc1O
Glyceamia evolution [1]: 7% | Glyceamia evolution [2]: 2% | Glyceamia evolution [3]: -9% | Glyceamia evolution [4]: -12%

COc1[nH]ncc1C(=O)O
Glyceamia evolution [1]: -4% | Glyceamia evolution [2]: -8% | Glyceamia evolution [3]: -20% | Glyceamia evolution [4]: -19%

CCOC(=O)Cn1cc(C(=O)O)c(OCc2ccccc2)n1
Glyceamia evolution [1]: 0% | Glyceamia evolution [2]: -3% | Glyceamia evolution [3]: -6% | Glyceamia evolution [4]: -8%

Cn1cc(C(=O)O)c(OCc2ccccc2)n1
Glyceamia evolution [1]: -5% | Glyceamia evolution [2]: -4% | Glyceamia evolution [3]: 2% | Glyceamia evolution [4]: -4%

Cn1cc(C(=O)O)c(=O)[nH]1
Glyceamia evolution [1]: -12% | Glyceamia evolution [2]: -16% | Glyceamia evolution [3]: -12% | Glyceamia evolution [4]: 0%
